Results reported in paper PMC12670765, “Employment of chia gum and tannic acid as natural products in immobilization of horseradish peroxidase for the removal of azo dye” (BMC Biotechnology, 2025).

Tested on: T1, Horseradish peroxidase (HRP), soluble HRP
T1 construct: gene PRXC1A; free soluble form
Assay: Lineweaver-Burk; absorbance at […] nm
Type: biochemical, Armoracia rusticana
Settings: soluble enzyme; co-substrate H2O2 (standard assay 8 mM); standard assay 20 mM sodium acetate pH 5.5

COc1ccccc1O [guaiacol]
Km: 6.9 mM
